# Test results from US20240417359A1, “PRECURSORS OF PHENOLIC FRAGRANT COMPOUNDS” (GIVAUDAN SA, priority 2021, published 2024).
# “Also recorded” adds a separate entry of the source.
# How the values were obtained:
# [1] = Washtest with liquid detergent and sensory evaluation of fabric by expert panel; conditions: Table 2; dry fabric 3 days; scale 0 to 5
# [2] = as above; conditions: for odour released on dry fabric: comparison of double bond position Δ-2, Δ-3, Δ-4
# Procedure: The wet and line-dried fabric (1 and 4 days) was assessed by a panel of 4-6 experts with regard to odour intensity and quality. The odour intensity was recorded on an intensity scale of 0 (odourless) to 5 (extremely strong).
# The odour intensity was recorded on an intensity scale of 0 (odorless) to 5 (extremely strong).
# Heavy duty liquid detergent samples were prepared and used in washtests and subsequent sensory evaluation of the washed and dried fabric as described in Example 60a and c. The odour intensity was recorded on an intensity scale of 0 (odourless) to 5 (extremely strong).
# [3] = Biodegradability, manometric respirometry test (OECD 301F); conditions: pass level 60% oxygen consumption of theory
# Text: The results of the biodegradability assessment by the manometric respirometry test (OECD guideline for the testing of materials No. 301F, Paris 1992) are summarized in Table 6.
# A compound can be classified biodegradable, if it reaches the pass level of 60% oxygen consumption of theory required for complete mineralization.
# It is readily biodegradable, if the pass level is reached within 10 days within the 28-day period of the test. The 10-day window begins when the degree of biodegradation has reached 10%. If the pass level is obtained after 28-day period of the test, the compound can be classified as inherently biodegradable.
# [4] = Odour description on paper blotter; conditions: 1% solution in EtOH on paper blotter, 24 h
# [5] = Application in shampoo base: sensory evaluation of washed hair swatches by expert panel; design: species or system human; conditions: Table 4; for odour on dry hair / odour intensity, wet: 0.2% by weight in shampoo base; for odour intensity, wet: wet hair swatch, scale 0 (odourless) to 5 (extremely strong); for odour intensity, 1 day: dried hair swatch 1 day; for odour intensity, 1 day / odour intensity, 3 days: scale 0 to 5; for odour intensity, 3 days: dried hair swatch 3 days
# Procedure: Odour-neutral human hair swatches were wetted with warm tap water and lathered delicately with 2 mL of the above hair shampoo samples for 30 sec by hand wearing gloves. The lathered hair swatches were left in a plastic bowl for 2 min, then rinsed under running tap water for 20 sec. After removing excess water by squeezing the hair swatches between two fingers, they were left to dry in open air. The wet and dried hair swatches (1 and 3 days) were assessed by a panel of 4-6 experts with regard to odour intensity and quality. The odour intensity was recorded on an intensity scale of 0 (odourless) to 5 (extremely strong).
# [6] = Colour stability in liquid detergent base (visual inspection); type: physicochemical; conditions: 0.2% by weight in unperfumed liquid detergent base, compared to unperfumed base
# Text: The above prepared samples were visually inspected in comparison to an unperfumed base sample (sample C).
# [7] = Table 2, dry fabric 1 day, scale 0 to 5
# [8] = Table 2, liquid detergent washtest
# [9] = Table 2, liquid detergent washtest, wet fabric, scale 0 (odorless) to 5 (extremely strong)
# [10] = Table 3, dry fabric 1 day, scale 0 to 5
# [11] = Table 3, dry fabric 4 days, scale 0 to 5
# [12] = Table 3, heavy duty liquid detergent washtest, wet fabric, scale 0 to 5
compound,measurement,setting,value
"CC/C=C\C/C=C\COc1ccc(C=O)cc1OCC [3-ethoxy-4-(((2Z,5Z)-octa-2,5-dien-1-yl)oxy)benzaldehyde, reference compound]","odour intensity, 3 days",[1],2.3
same,"odour intensity, 1 day",[2]; [7],2.8
same,odour on dry fabric,[2]; [8],metallic
same,"odour intensity, wet",[2]; [9],0.9
same,odour released on dry fabric,[2],weak and unpleasant odours
"CC/C=C\CCC(CCCCCCCCC)Oc1ccc(C=O)cc1OCC (centres unmarked) [(Z)-3-ethoxy-4-(hexadec-3-en-7-yloxy)benzaldehyde, reference compound]","odour intensity, 3 days",[1],1.6
same,"odour intensity, 1 day",[2]; [7],1.2
same,odour on dry fabric,[2]; [8],"rubbery, metallic"
same,"odour intensity, wet",[2]; [9],1.1
same,odour released on dry fabric,[2],weak and unpleasant odours
"CCCCCC[C@@H](C/C=C\CCCCCCCC(=O)OC)Oc1ccc(C=O)cc1OCC [Example 1, methyl (S,Z)-12-(2-ethoxy-4-formylphenoxy)octadec-9-enoate]",Biodegradation in %,[3],90%
same,Odour description,[4],"powdery, vanillin, green, fatty"
"CCCCCC[C@@H](C/C=C\CCCCCCCC(=O)OC)Oc1ccc(CCC(C)=O)cc1 [Example 2, methyl (S,Z)-12-(4-(3-oxobutyl)phenoxy)octadec-9-enoate]",Biodegradation in %,[3],88%
same,Odour description,[4],"powdery fruity raspberry, green, fatty"
"CC/C=C\CC(CCCCC)Oc1ccc(C=O)cc1OCC (centres unmarked) [Example 17, (Z)-3-ethoxy-4-(undec-3-en-6-yloxy)benzaldehyde]",Biodegradation in %,[3],86%
same,Odour description,[4],"powdery (dry, vanilla, chocolate)"
"CC/C=C\CC(CCCCCCCCC)Oc1ccc(C=O)cc1OCC (centres unmarked) [Example 28, (Z)-3-ethoxy-4-(Pentadec-3-en-6-yloxy)benzaldehyde]","odour intensity, 1 day","[2]; Table 1, line-dried fabric 1 day, scale 0 to 5",2.3
same,"odour intensity, 4 days","[2]; Table 1, line-dried fabric 4 days, scale 0 to 5",2.6
same,"odour intensity, wet","[2]; Table 1, liquid detergent 0.2% by weight, 40° C. machine wash, cotton/elastan fabric, wet, scale 0 (odourless) to 5 (extremely strong)",2.1
same,"odour intensity, 1 day",[2]; [10],2.3
same,"odour intensity, 4 days",[2]; [11],2.6
same,"odour intensity, wet",[2]; [12],2.1
same,odour released from washed fabric,"[2]; liquid detergent washtest, dry fabric","mandarin, vanilla and powdery fragrance"
same,odour on dry hair,[5],"mandarin, vanilla"
same,"odour intensity, wet",[5],1.7
same,"odour intensity, 1 day",[5],3.5
same,"odour intensity, 3 days",[5],4.4
same,Odour description,[4],"powdery, creamy, vanilla, aldehydic, mandarin"
same,Colour of liquid detergent sample (visual inspection),[6],optically identical to the unperfumed base
"CC/C=C/CC(CCCCCCCCC)Oc1ccc(C=O)cc1OCC (centres unmarked) [Example 29, (E)-3-ethoxy-4-(pentadec-3-en-6-yloxy)benzaldehyde]",Biodegradation in %,[3],70%
same,Odour description,[4],"powdery, creamy, vanilla, aldehydic, mandarin"
"CC/C=C\C/C=C\CCOc1ccc(C=O)cc1OCC [Example 30, 3-ethoxy-4-(((3Z,6Z)-nona-3,6-dien-1-yl)oxy)benzaldehyde]","odour intensity, 3 days",[1],4.1
same,"odour intensity, 1 day",[2]; [7],3.4
same,odour on dry fabric,[2]; [8],"vanilla, green"
same,"odour intensity, wet",[2]; [9],2.7
same,"odour intensity, 1 day",[2]; [10],3.4
same,"odour intensity, 4 days",[2]; [11],4.1
same,"odour intensity, wet",[2]; [12],2.7
same,odour released on dry fabric,[2],strong and pleasant odour
same,Odour description,[4],"green, leaf aldehyde, green apple, powdery, vanilla"
"CCCCCC(C)=CCCOc1ccc(C=O)cc1OCC [Example 42, 3-ethoxy-4-((4-methylnon-3-en-1-yl)oxy)benzaldehyde]","odour intensity, 1 day",[2]; [10],2.8
same,"odour intensity, 4 days",[2]; [11],3.3
same,"odour intensity, wet",[2]; [12],2.1
same,odour on dry hair,[5],"vanilla, sweet"
same,"odour intensity, wet",[5],1.0
same,"odour intensity, 1 day",[5],1.4
same,"odour intensity, 3 days",[5],1.9
same,Odour description,[4],"powdery, vanilla, sweet, sugary"
"CCOc1cc(C=O)ccc1OCCC=C(C)CCc1ccccc1 [Example 47, 3-ethoxy-4-((4-methyl-6-phenylhex-3-en-1-yl)oxy)benzaldehyde]","odour intensity, 1 day",[2]; [10],2.7
same,"odour intensity, 4 days",[2]; [11],3.0
same,"odour intensity, wet",[2]; [12],1.5
same,"odour intensity, wet",[5],1.4
same,"odour intensity, 1 day",[5],2.7
same,"odour intensity, 3 days",[5],2.1
same,Odour description,[4],"sweet, vanilla, ice cream, powdery, fruity, raspberry, sorbet"
"CCOc1cc(C=O)ccc1O [ethylvanillin, 3-ethoxy-4-hydroxybenzaldehyde]",Colour of liquid detergent sample (visual inspection),[6],strong purple coloration; also recorded: colors the base
